Key:
[1] = biological target: T1, human serotonin 5-HT6 receptor (Homo sapiens, UniProt P50406); experiment: [3H]LSD binding at cloned 5-HT6 receptors; details: for IC50: [3H]LSD 1.87 nM, cloned receptor membranes, 37° C., 60 min, read-out: IC50; for inhibition at 10 µM: read-out: Binding affinity (Inhibition rate % at 10 μM) 5HT6; for 5-HT6 affinity compared with known selective antagonists: in words
T1 construct: made in house; host or cells: Sf21 insect cells (pBacPAK8 baculovirus vector)

D1 = D1 (Homo sapiens, UniProt P21728); experiment: Radioligand binding for selectivity, D1; details: read-out: Binding affinity (Inhibition rate % at 10 μM) D1
Sequence of D1 (P21728 whole entry): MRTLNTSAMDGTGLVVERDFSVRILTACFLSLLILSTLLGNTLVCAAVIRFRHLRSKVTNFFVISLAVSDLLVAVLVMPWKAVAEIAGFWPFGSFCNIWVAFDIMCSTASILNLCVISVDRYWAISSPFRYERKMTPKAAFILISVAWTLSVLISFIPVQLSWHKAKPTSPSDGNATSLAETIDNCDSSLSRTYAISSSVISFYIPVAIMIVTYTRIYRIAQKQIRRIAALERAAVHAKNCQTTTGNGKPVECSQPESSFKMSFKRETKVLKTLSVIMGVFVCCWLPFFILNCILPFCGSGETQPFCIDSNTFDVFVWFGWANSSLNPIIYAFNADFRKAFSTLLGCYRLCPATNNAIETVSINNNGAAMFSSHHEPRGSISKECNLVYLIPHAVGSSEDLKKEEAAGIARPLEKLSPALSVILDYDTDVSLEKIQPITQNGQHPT

hD2L receptor = biological target: T2, hD2L receptor (Homo sapiens, UniProt P14416); experiment: Radioligand binding, dopamine D2 ([3H]spiperone); details: read-out: Binding affinity (Inhibition rate % at 10 μM) D2
T2 construct: purchased BioSignal Packard Inc., Montreal, Canada
T2 sequence (P14416 whole entry): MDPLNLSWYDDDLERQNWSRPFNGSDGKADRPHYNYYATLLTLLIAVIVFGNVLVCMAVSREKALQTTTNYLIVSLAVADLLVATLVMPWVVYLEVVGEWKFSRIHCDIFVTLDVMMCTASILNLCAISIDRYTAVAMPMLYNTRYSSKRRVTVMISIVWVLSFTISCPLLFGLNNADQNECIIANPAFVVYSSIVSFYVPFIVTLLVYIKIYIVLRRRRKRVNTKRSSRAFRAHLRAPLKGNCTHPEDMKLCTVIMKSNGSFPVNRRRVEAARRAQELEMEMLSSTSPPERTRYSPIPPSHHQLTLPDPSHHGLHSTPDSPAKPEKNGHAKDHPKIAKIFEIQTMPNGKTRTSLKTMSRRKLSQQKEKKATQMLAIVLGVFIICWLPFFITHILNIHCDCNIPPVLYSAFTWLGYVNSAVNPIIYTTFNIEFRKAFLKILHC

hD3 receptor = biological target: T3, hD3 receptor (Homo sapiens, UniProt P35462); experiment: Radioligand binding, dopamine D3 ([3H]spiperone); details: read-out: Binding affinity (Inhibition rate % at 10 μM) D3
T3 construct: purchased BioSignal Packard Inc., Montreal, Canada
T3 sequence (P35462 whole entry): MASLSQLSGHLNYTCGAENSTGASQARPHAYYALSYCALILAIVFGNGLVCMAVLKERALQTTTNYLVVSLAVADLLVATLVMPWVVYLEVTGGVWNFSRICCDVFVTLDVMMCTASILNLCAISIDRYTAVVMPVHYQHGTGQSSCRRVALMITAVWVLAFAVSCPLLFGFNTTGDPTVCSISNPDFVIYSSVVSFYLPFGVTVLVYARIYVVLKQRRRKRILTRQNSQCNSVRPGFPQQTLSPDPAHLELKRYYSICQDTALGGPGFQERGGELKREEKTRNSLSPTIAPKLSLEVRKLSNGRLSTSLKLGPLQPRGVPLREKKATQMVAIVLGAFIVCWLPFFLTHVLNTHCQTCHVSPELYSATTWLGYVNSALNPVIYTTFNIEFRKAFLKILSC

hD4.2 receptor = biological target: T4, hD4.2 receptor (Homo sapiens, UniProt P21917, DEL265-296); experiment: Radioligand binding, dopamine D4 ([3H]YM-09151-2); details: read-out: Binding affinity (Inhibition rate % at 10 μM) D4
T4 construct: purchased BioSignal Packard Inc., Montreal, Canada
T4 sequence (P21917 with tags, fused parts or gaps DEL265-296): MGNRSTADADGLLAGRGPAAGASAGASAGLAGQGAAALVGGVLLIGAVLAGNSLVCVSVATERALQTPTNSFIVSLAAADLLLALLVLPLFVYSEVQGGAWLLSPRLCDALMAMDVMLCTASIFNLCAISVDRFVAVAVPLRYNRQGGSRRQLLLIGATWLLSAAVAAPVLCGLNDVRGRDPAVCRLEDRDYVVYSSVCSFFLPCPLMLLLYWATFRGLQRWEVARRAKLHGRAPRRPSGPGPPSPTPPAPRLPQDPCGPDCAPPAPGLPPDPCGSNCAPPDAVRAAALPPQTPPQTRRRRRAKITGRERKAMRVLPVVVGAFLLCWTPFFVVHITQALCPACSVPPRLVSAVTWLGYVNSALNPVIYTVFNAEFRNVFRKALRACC

5-HT1a = biological target: T5, 5-HT1a (Homo sapiens, UniProt P08908); experiment: Radioligand binding, 5-HT1a ([3H]8-OH-DPAT); details: read-out: Binding affinity (Inhibition rate % at 10 μM) 5HT1a
T5 construct: purchased Euroscreen/BioSignal Packard Inc
T5 sequence (P08908 1-422): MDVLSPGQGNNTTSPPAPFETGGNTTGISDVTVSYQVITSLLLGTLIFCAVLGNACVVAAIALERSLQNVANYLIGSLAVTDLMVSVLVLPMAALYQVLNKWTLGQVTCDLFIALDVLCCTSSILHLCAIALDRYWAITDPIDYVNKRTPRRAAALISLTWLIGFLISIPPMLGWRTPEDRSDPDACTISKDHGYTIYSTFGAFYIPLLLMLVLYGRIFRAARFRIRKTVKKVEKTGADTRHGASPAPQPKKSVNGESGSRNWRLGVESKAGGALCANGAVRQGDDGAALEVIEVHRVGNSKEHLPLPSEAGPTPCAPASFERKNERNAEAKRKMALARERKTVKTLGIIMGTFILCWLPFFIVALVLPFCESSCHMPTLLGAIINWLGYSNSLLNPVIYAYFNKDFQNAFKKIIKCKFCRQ
Experimental: (§1) Radioligand bindings were performed according to the test method provided by the supplier of receptor membrane (Euroscreen/BioSignal Packard Inc.).

5-HT2a = biological target: T6, 5-HT2a (Homo sapiens, UniProt P28223); experiment: Radioligand binding, 5-HT2a ([3H]Ketanserin); details: read-out: Binding affinity (Inhibition rate % at 10 μM) 5HT2a
T6 construct: purchased Euroscreen/BioSignal Packard Inc
T6 sequence (P28223 whole entry): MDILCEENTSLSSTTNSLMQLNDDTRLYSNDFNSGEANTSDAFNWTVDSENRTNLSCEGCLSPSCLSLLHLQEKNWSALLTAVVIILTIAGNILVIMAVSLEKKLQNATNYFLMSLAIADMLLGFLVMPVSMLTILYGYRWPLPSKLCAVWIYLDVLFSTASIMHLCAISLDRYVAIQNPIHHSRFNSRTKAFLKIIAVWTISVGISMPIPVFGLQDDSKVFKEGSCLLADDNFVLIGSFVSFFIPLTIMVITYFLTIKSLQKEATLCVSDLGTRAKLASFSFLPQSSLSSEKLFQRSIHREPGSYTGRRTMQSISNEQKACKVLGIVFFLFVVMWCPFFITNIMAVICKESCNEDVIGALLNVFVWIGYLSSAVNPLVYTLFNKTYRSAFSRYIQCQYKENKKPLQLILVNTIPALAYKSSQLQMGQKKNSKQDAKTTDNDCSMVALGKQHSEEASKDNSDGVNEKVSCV
Experimental: as §1

5-HT2c = biological target: T7, 5-HT2c (Homo sapiens, UniProt P28335); experiment: Radioligand binding, 5-HT2c ([3H]Mesulergine); details: read-out: Binding affinity (Inhibition rate % at 10 μM) 5HT2c
T7 construct: purchased Euroscreen/BioSignal Packard Inc
T7 sequence (P28335 33-458): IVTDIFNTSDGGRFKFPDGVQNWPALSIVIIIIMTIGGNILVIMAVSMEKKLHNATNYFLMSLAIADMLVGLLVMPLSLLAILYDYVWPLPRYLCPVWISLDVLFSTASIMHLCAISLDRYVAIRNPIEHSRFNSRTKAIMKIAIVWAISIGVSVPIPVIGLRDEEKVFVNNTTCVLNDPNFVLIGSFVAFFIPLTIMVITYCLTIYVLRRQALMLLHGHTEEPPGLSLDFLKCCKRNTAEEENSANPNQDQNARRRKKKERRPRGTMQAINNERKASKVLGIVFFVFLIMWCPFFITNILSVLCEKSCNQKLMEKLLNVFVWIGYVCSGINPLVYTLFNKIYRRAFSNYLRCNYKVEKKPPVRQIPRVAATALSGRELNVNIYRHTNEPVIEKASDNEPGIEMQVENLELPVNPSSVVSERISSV
Experimental: as §1

5-HT7 = biological target: T8, 5-HT7 (Homo sapiens, UniProt P34969); experiment: Radioligand binding, 5-HT7 ([3H]LSD); details: read-out: Binding affinity (Inhibition rate % at 10 μM) 5HT7
T8 construct: purchased Euroscreen/BioSignal Packard Inc
T8 sequence (P34969 whole entry): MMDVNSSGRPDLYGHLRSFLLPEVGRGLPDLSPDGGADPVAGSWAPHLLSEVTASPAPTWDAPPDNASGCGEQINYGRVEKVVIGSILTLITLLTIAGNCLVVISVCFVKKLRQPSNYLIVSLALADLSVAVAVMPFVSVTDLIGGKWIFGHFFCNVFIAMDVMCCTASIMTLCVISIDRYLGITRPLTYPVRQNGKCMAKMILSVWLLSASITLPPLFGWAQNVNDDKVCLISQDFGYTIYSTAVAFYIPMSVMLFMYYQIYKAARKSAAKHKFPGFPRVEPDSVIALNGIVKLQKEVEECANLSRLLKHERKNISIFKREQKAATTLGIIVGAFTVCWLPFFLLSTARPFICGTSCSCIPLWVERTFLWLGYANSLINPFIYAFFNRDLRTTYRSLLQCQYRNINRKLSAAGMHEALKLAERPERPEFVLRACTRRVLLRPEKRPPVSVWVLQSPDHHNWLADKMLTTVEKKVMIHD
Experimental: as §1

T1 sequence (P50406 whole entry): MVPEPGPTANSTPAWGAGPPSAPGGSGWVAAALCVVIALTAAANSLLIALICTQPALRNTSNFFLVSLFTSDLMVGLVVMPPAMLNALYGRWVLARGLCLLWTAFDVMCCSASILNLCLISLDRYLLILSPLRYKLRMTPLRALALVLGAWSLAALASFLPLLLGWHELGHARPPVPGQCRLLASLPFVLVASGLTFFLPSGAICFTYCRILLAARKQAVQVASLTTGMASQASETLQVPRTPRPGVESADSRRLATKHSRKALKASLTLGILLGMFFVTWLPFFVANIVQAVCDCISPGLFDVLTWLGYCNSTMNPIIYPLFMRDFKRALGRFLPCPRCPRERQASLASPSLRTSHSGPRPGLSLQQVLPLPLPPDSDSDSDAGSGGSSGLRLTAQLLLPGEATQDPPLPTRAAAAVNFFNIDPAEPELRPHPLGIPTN

## COc1ccc(C2(C)C(=O)Nc3cc(Cl)cc(Cl)c3C2=O)cc1[N+](=O)[O-] (centres unmarked) [Example 21, 5,7-dichloro-3-(4-methoxy-3-nitro-phenyl)-3-methyl-1H-quinoline-2,4-dione]
[1]
  IC50: 1230 nM
  inhibition at 10 µM: 73.7%
D1
  inhibition at 10 µM: 40.2%
hD2L receptor
  inhibition at 10 µM: 10.5%
hD3 receptor
  inhibition at 10 µM: 16.4%
hD4.2 receptor
  inhibition at 10 µM: 0%
5-HT1a
  inhibition at 10 µM: 15.9%
5-HT2a
  inhibition at 10 µM: 16.3%
5-HT2c
  inhibition at 10 µM: 10.8%
5-HT7
  inhibition at 10 µM: 0%
other
  melting point: 255 to 256 °C

## CC1(c2ccc(O)c(Br)c2)C(=O)Nc2cc(Cl)cc(Cl)c2C1=O (centres unmarked) [Example 24, 3-(3-bromo-4-hydroxy-phenyl)-5,7-dichloro-3-methyl-1H-quinoline-2,4-dione]
[1]
  IC50: 126 nM
  inhibition at 10 µM: 71%
D1
  inhibition at 10 µM: 13%
hD2L receptor
  inhibition at 10 µM: 5%
hD3 receptor
  inhibition at 10 µM: 16.6%
hD4.2 receptor
  inhibition at 10 µM: 0%
5-HT1a
  inhibition at 10 µM: 50.4%
5-HT2a
  inhibition at 10 µM: 11.5%
5-HT2c
  inhibition at 10 µM: 22.8%
5-HT7
  inhibition at 10 µM: 5.5%
other
  melting point: 228 to 229 °C

## COc1cc(C2(C)C(=O)Nc3ccccc3C2=O)ccc1O (centres unmarked) [Example 31, 3-(4-hydroxy-3-methoxy-phenyl)-3-methyl-1H-quinoline-2,4-dione]
[1]
  IC50: 801 nM
  inhibition at 10 µM: 70.6%
D1
  inhibition at 10 µM: 37.1%
hD2L receptor
  inhibition at 10 µM: 9.2%
hD3 receptor
  inhibition at 10 µM: 9.8%
hD4.2 receptor
  inhibition at 10 µM: 0%
5-HT1a
  inhibition at 10 µM: 31.2%
5-HT2a
  inhibition at 10 µM: 43.5%
5-HT2c
  inhibition at 10 µM: 10.2%
5-HT7
  inhibition at 10 µM: 16.4%
other
  melting point: 168 to 169 °C

## CC1(c2ccc(O)c([N+](=O)[O-])c2)C(=O)Nc2cc(Cl)cc(Cl)c2C1=O (centres unmarked) [Example 22, 5,7-dichloro-3-(4-hydroxy-3-nitro-phenyl)-3-methyl-1H-quinoline-2,4-dione]
[1]
  IC50: 1010 nM
  inhibition at 10 µM: 72.5%
D1
  inhibition at 10 µM: 35.7%
hD2L receptor
  inhibition at 10 µM: 11.2%
hD3 receptor
  inhibition at 10 µM: 34%
hD4.2 receptor
  inhibition at 10 µM: 0%
5-HT1a
  inhibition at 10 µM: 68.7%
5-HT2a
  inhibition at 10 µM: 50.9%
5-HT2c
  inhibition at 10 µM: 2.5%
5-HT7
  inhibition at 10 µM: 36.3%
other
  melting point: 239 to 240 °C

## CC1(c2ccc([N+](=O)[O-])cc2)C(=O)Nc2cc(Cl)ccc2C1=O (centres unmarked) [Example 37, 7-chloro-3-methyl-3-(4-nitro-phenyl)-1H-quinoline-2,4-dione]
[1]
  IC50: 1000 nM
  inhibition at 10 µM: 73.3%
D1
  inhibition at 10 µM: 49.2%
hD2L receptor
  inhibition at 10 µM: 8.3%
hD3 receptor
  inhibition at 10 µM: 10.5%
hD4.2 receptor
  inhibition at 10 µM: 0%
5-HT1a
  inhibition at 10 µM: 10.4%
5-HT2a
  inhibition at 10 µM: 49.2%
5-HT2c
  inhibition at 10 µM: 1.4%
5-HT7
  inhibition at 10 µM: 21%
other
  melting point: 209 to 210 °C

## CC1(c2ccccc2)C(=O)Nc2cc(Br)cc(Br)c2C1=O (centres unmarked) [Example 4, 5,7-dibromo-3-methyl-3-phenyl-1H-quinoline-2,4-dione]
[1]
  IC50: 320 nM
  inhibition at 10 µM: 70.9%
D1
  inhibition at 10 µM: 23.7%
hD2L receptor
  inhibition at 10 µM: 3%
hD3 receptor
  inhibition at 10 µM: 15.8%
hD4.2 receptor
  inhibition at 10 µM: 0%
5-HT1a
  inhibition at 10 µM: 11.7%
5-HT2a
  inhibition at 10 µM: 13.6%
5-HT2c
  inhibition at 10 µM: 29.8%
5-HT7
  inhibition at 10 µM: 13%
other
  melting point: 202 to 203 °C

## COc1ccc(C2(C)C(=O)Nc3cc(Cl)cc(Cl)c3C2=O)cc1 (centres unmarked) [Example 12, 5,7-dichloro-3-(4-methoxy-phenyl)-3-methyl-1H-quinoline-2,4-dione]
[1]
  IC50: 917 nM
  5-HT6 affinity compared with known selective antagonists: almost same affinities as or better affinities than known selective antagonists
  inhibition at 10 µM: 73.3%
D1
  inhibition at 10 µM: 15.7%
hD2L receptor
  inhibition at 10 µM: 16.3%
hD3 receptor
  inhibition at 10 µM: 24%
hD4.2 receptor
  inhibition at 10 µM: 0%
5-HT1a
  inhibition at 10 µM: 40.2%
5-HT2a
  inhibition at 10 µM: 8.5%
5-HT2c
  inhibition at 10 µM: 5.7%
5-HT7
  inhibition at 10 µM: 23.1%
other
  melting point: 210 to 212 °C

## COc1ccc(C2(C)C(=O)Nc3cc(OC)cc(Cl)c3C2=O)cc1 (centres unmarked) [Example 35, 5-chloro-7-methoxy-3-(4-methoxy-phenyl)-3-methyl-1H-quinoline-2,4-dione]
[1]
  IC50: 1360 nM
  inhibition at 10 µM: 69.1%
D1
  inhibition at 10 µM: 43.1%
hD2L receptor
  inhibition at 10 µM: 5.1%
hD3 receptor
  inhibition at 10 µM: 6.4%
hD4.2 receptor
  inhibition at 10 µM: 1.7%
5-HT1a
  inhibition at 10 µM: 52.3%
5-HT2a
  inhibition at 10 µM: 20.7%
5-HT2c
  inhibition at 10 µM: 16.4%
5-HT7
  inhibition at 10 µM: 22.4%
other
  melting point: 222 to 224 °C

## CCN(CC)c1ccc(C2(C)C(=O)Nc3cc(Cl)cc(Cl)c3C2=O)cc1 (centres unmarked) [Example 42, 5,7-dichloro-3-(4-diethylamino-phenyl)-3-methyl-1H-quinoline-2,4-dione]
[1]
  IC50: 15 nM
  5-HT6 affinity compared with known selective antagonists: almost same affinities as or better affinities than known selective antagonists
  inhibition at 10 µM: 69.5%
D1
  inhibition at 10 µM: 38.7%
hD2L receptor
  inhibition at 10 µM: 15.7%
hD3 receptor
  inhibition at 10 µM: 25.3%
hD4.2 receptor
  inhibition at 10 µM: 8.5%
5-HT1a
  inhibition at 10 µM: 6.5%
5-HT2a
  inhibition at 10 µM: 16.9%
5-HT2c
  inhibition at 10 µM: 13.7%
5-HT7
  inhibition at 10 µM: 10.1%
other
  melting point: 247 to 249 °C
